In ChEMBL document CHEMBL1201862, “PubChem BioAssay data set” (2004):
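How tested: cells in 96-well plates exposed to compound for 48 hours at five concentrations. GI50 = concentration required for 50% inhibition of growth.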 Activity calls are given as the source filed them. Cut-off read from the data, not from the text of the source: active = GI50 up to about 1.1 µM and inactive = higher.

Key:
Assay in all cases: NCI anticancer screen, dose series, 48 h
BT-549 = system: BT-549
HOP-62 = system: HOP-62
HCT-15 = system: HCT-15
UO-31 = system: UO-31
LOX IMVI = system: LOX IMVI
SF-539 = system: SF-539
NCI/ADR-RES = system: NCI/ADR-RES
SR = system: SR
HOP-92 = system: HOP-92
HCC 2998 = system: HCC 2998
MCF7 = system: MCF7
NCI-H23 = system: NCI-H23
A549 = system: A549
SNB-19 = system: SNB-19
OVCAR-8 = system: OVCAR-8
COLO 205 = system: COLO 205
CCRF-CEM = system: CCRF-CEM
UACC-257 = system: UACC-257
CAKI-1 = system: CAKI-1
RPMI-8226 = system: RPMI-8226

For `CN1C(=O)C(=CNc2ccc(Cl)cc2Cl)C(=O)N(C)C1=O`, the GI50 (BT-549) was > 100 µM (inactive), the GI50 (HOP-62) was > 100 µM (inactive) and the GI50 (HCT-15) was > 100 µM. For the same molecule, the GI50 (UO-31) was > 100 µM (inactive), the GI50 (LOX IMVI) was > 100 µM (inactive) and the GI50 (SF-539) was > 100 µM (inactive). For the same molecule, the GI50 (NCI/ADR-RES) was > 100 µM (inactive), the GI50 (SR) was > 100 µM (inactive) and the GI50 (HOP-92) was > 100 µM (inactive). For the same molecule, the GI50 (HCC 2998) was > 100 µM (inactive), the GI50 (MCF7) was > 100 µM (inactive) and the GI50 (NCI-H23) was > 100 µM (inactive). For the same molecule, the GI50 (A549) was > 100 µM (inactive), the GI50 (SNB-19) was > 100 µM (inactive) and the GI50 (OVCAR-8) was 17.9 µM (inactive). For the same molecule, the GI50 (COLO 205) was > 100 µM (inactive), the GI50 (CCRF-CEM) was 13.9 µM (inactive) and the GI50 (UACC-257) was > 100 µM (inactive). For the same molecule, the GI50 (CAKI-1) was > 100 µM (inactive) and the GI50 (RPMI-8226) was > 100 µM (inactive).
